Measured values from paper PMC11124136, “New Thiazolidine-4-One Derivatives as SARS-CoV-2 Main Protease Inhibitors” (Pharmaceuticals, 2024).

Target: SARS-CoV-2 Mpro (Severe acute respiratory syndrome coronavirus 2, UniProt P0DTD1)
Experiment: biochemical
Format: biochemical
Settings: for SARS-CoV-2 Mpro inhibition, result in words: inactivity = IC50 > 30 μM; for IC50: FRET assay, concentration reducing Mpro activity by 50%, mean ± SD of three independent experiments, highest concentration tested 30 μM

## O=C1CSC(c2ccc([N+](=O)[O-])cc2)N1CCc1ccccc1 (stereo not drawn) [Compound 4a, 2-(4-nitrophenyl)-3-(phenylethyl)-1,3-thiazolidin-4-one]
  SARS-CoV-2 Mpro inhibition, result in words: inactive

## O=C1CSC(c2ccc([N+](=O)[O-])cc2)N1CCc1ccccc1Cl (stereo not drawn) [Compound 4g]
  IC50: 26 ± 4 µM

## COc1ccc(CCN2C(=O)CSC2c2ccc([N+](=O)[O-])cc2)cc1 (stereo not drawn) [Compound 4f]
  IC50: > 30 µM
  SARS-CoV-2 Mpro inhibition, result in words: inactive

## COc1ccccc1CCN1C(=O)CSC1c1ccc([N+](=O)[O-])cc1 (stereo not drawn) [Compound 4e]
  IC50: > 30 µM
  SARS-CoV-2 Mpro inhibition, result in words: inactive

## O=C1CSC(c2ccc([N+](=O)[O-])cc2)N1CCc1ccc(Cl)cc1 (stereo not drawn) [Compound 4i]
  IC50: > 30 µM
  SARS-CoV-2 Mpro inhibition, result in words: inactive

## O=C1CSC(c2ccc([N+](=O)[O-])cc2)N1CCc1cccc(F)c1 (stereo not drawn) [Compound 4c, 2-(4-nitrophenyl)-3-(3-fluorophenylethyl)-1,3-thiazolidin-4-one]
  SARS-CoV-2 Mpro inhibition, result in words: inactive
